Converted amounts (≈) assume the structure as drawn. Like-named read-outs stand apart in the source and are kept apart here.
Legend:
Atlantic salmon [1] = assay: Safety of formulations based on different solvents after intraperitoneal injection; type: in vivo; settings: i.p. 0.2 ml; 37.8 g, freshwater 17°C; 3 week period
Description: Atlantic salmon (average size: 37.8 g) kept in freshwater (17°C) were divided into 11 groups of 5 or 25 fish per group. Mortality was then logged over a 3 week period. […]

salmonids = settings: Benville et al 1968; cited from earlier work
Atlantic salmon [2] = settings: in vivo, ip, 3 months
Description: To investigate the toxicity of the polar solvent further, formulations comprising different amounts of DMSO were prepared as detailed in Table 4. The formulations were intraperitoneally injected in a single dose into Atlantic salmon (19 - 38 g) kept in freshwater (8 - 17 °C). The eventual toxicity induced by each formulation was assessed by continuous registration of mortality up until 3 months post injection, and is shown in Table 4.
Therefore, it was extremely surprising to find that doses as low as about 1 g/kg cause mortality in Atlantic salmon.

Lepeophtheirus salmonis = assay: Sea lice challenge of treated Atlantic salmon; type: in vivo; settings: for Mean number of lice per fish Treated group: chalimus stage counted 2 weeks post challenge, n=10; for Relative effect of treatment: versus untreated group
Description: Atlantic salmon (total n=180) were kept in full seawater (3.5% salinity, 12°C). Half of the population (n=90) were treated with parasiticide (in this case hexaflumuron) on day 0. Treated and untreated fish (n=10 per group) were randomly collected from each group and challenged with copepodids of Lepeophtheirus salmonis in a common challenge tank during a 12 weeks period. This was done six times after treatments, in weeks 1, 3, 6, 8, 10 and 12 post treatment. The number of lice reaching chalimus stage was registered on each fish 2 weeks post challenge. Concentration of hexaflumuron in a portion of muscle with skin was also measured in each fish at the time of lice count.

[3] = Solubility of hexaflumuron, solvent added gradually until complete dissolution; type: physicochemical; settings: for solubility: thermodynamic from solid
Description: In order to produce a formulation in which hexaflumuron was present in stable solution, the solubility of hexaflumuron in various other solvents was investigated. Solubility was determined by adding each solvent gradually to a specific mass of hexaflumuron until complete dissolution was observed.

[4] = cited from earlier work
[5] = Maximum solubility of hexaflumuron in PEG/DMSO/CA as a function of PEG molecular weight (Figure 6); type: physicochemical; settings: PEG600/DMSO/CA mixture, organic solvent or mixture, thermodynamic from solid; formulation with 85% by weight PEG600 and 15% by weight DMSO
Description: An experiment was performed in order to investigate the solubility of parasiticide (hexaflumuron) in a formulation comprising PEG (85 mass%), DMSO (15 mass%), and CA (0.3 volume %) as a function of PEG molecular weight. Increasing amounts of hexaflumuron were dissolved in different mixtures of PEG/DMSO/CA (85/15/0.3) with PEG molecular weights ranging from 200 to 600.

For `COCC(C)O` (stereo not shown) [1-methoxy-2-propanol], the “% Mortality” value (Atlantic salmon [1]) was 100%.

In the case of `C[S+](C)[O-]` [DMSO, Dimethyl sulfoxide], the LD50 (salmonids) is listed as 12000 to 17000 mg/kg, the “dose reported not to give any mortality” value (salmonids) is listed as 7050 mg/kg and the “doses at which DMSO was found to be toxic” value (Atlantic salmon [2]) is listed as over 1000 mg/kg.

In the case of `CCOC(C)=O` [Ethyl acetate], the “% Mortality” value (Atlantic salmon [1]) is reported as 100%.

With `O=C(NC(=O)c1c(F)cccc1F)Nc1cc(Cl)c(OC(F)(F)C(F)F)c(Cl)c1` [Hexaflumuron] the “Mean number of lice per fish Treated group” value (Lepeophtheirus salmonis; challenged week 1 post treatment, Atlantic salmon, seawater 12°C) was 0, the “Mean number of lice per fish Treated group” value (Lepeophtheirus salmonis; challenged week 3 post treatment) was 0 and the “Mean number of lice per fish Treated group” value (Lepeophtheirus salmonis; challenged week 6 post treatment) was 0. For the same compound, the “Mean number of lice per fish Treated group” value (Lepeophtheirus salmonis; challenged week 8 post treatment) was 0.2, the “Mean number of lice per fish Treated group” value (Lepeophtheirus salmonis; challenged week 10 post treatment) was 1.7 and the “Mean number of lice per fish Treated group” value (Lepeophtheirus salmonis; challenged week 12 post treatment) was 27.6. For the same compound, the “Relative effect of treatment” value (Lepeophtheirus salmonis; week 1 post treatment) was 100%, the “Relative effect of treatment” value (Lepeophtheirus salmonis; week 3 post treatment) was 100% and the “Relative effect of treatment” value (Lepeophtheirus salmonis; week 6 post treatment) was 100%. The “Relative effect of treatment” value (Lepeophtheirus salmonis; week 8 post treatment) was 98%, the “Relative effect of treatment” value (Lepeophtheirus salmonis; week 10 post treatment) was 69% and the “Relative effect of treatment” value (Lepeophtheirus salmonis; week 12 post treatment) was 47%. For the same compound, the solubility ([3]; oil or lipid, solvent: Isopropyl myristate) was under 1 mg/mL, the solubility ([3]; oil or lipid, solvent: Paraffin Light Liquid) was under 0.1 mg/mL and the solubility ([3]; organic solvent or mixture, solvent: Acetone) was over 130 mg/mL. For the same compound, the solubility ([3]; organic solvent or mixture, solvent: DMA) was over 300 mg/mL, the solubility ([3]; organic solvent or mixture, solvent: DMF) was over 300 mg/mL and the solubility ([3]; organic solvent or mixture, solvent: DMSO) was over 300 mg/mL. The solubility ([3]; organic solvent or mixture, solvent: Ethyl acetate) was over 75 mg/mL, the solubility ([3]; organic solvent or mixture, solvent: NMP) was over 300 mg/mL and the solubility ([3]; organic solvent or mixture, solvent: Propylene glycol (PG)) was under 0.5 mg/mL. The solubility ([3]; organic solvent or mixture, solvent: Tetraglycol) was over 75 mg/mL, the solubility ([3]; organic solvent or mixture, solvent: n-heptane) was under 0.5 mg/mL and the “Hexaflumuron Solubility” value ([3]; solvent: DMSO) was over 300 mg/mL. The “Hexaflumuron Solubility” value ([4]; solvent: Methanol) was 11300 µg/mL, the “Hexaflumuron Solubility” value ([4]; solvent: Water) was 0.027 µg/mL and the “Hexaflumuron Solubility” value ([4]; solvent: Water, listed as hexaflumuron) was “about 2.7 x 10^-5 mg/ml”. For the same compound, the “Hexaflumuron Solubility” value ([4]; solvent: Xylene) was 5200 µg/mL and the solubility [5] was about 130 mg/mL (≈ 282 mM).

For `CN1CCCC1=O` [NMP, n-methyl-2-pyrrolidone], the “% Mortality” value (Atlantic salmon [1]) was 100%.

For `CC(O)CO` (stereo not shown) [PG, propylene glycol], the “% Mortality” value (Atlantic salmon [1]) was 0%.

In the case of Glycofurol, the “% Mortality” value (Atlantic salmon [1]) is reported as 100%.
